# Reference: US7608620B2, “LPAAT-β inhibitors and uses thereof” (Cell Therapeutics, Inc., priority 2000, dated 2009)
# Legend:
# [1] = tested on: B16 melanoma cells; test: Growth of B16 melanoma cells in syngeneic mice; type: in vivo; settings: FIG. 6C
# [2] = tested on: human breast tumor MCF-7 cells; test: Proliferation of MCF-7 cells by CyQUANT analysis; type: cell-based; settings: FIG. 5E
# Procedure: To determine whether administration of LPAAT-β inhibitor would have any effect on cell proliferation in tissue culture, proliferation of human breast tumor MCF-7 cells in microplates were measured by CyQUANT analysis using a green-fluorescent nucleic acid stain optimized to produce a linear detection range from 50 to 50,000 cells in 200 μl volume (Molecular Probes, Eugene, Oreg.) in the presence of various concentrations of a LPAAT-β inhibitor.
# [3] = target: T1, LPAAT-α (Homo sapiens, UniProt Q99943); test: Secondary assay, effect on LPAAT-α activity; type: biochemical; settings: FIG. 9
# T1 sequence (Q99943 27-283): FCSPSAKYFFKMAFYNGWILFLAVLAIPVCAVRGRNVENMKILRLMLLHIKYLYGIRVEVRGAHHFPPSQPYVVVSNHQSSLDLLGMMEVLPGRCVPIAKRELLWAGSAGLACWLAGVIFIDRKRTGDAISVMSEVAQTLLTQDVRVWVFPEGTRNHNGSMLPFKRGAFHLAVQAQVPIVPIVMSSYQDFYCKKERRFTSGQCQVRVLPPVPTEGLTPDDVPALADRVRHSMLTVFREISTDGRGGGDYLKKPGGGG
# [4] = target: T2, LPAAT-β (Homo sapiens, UniProt O15120); test: Secondary assay of LPAAT-β activity (radiometric/TLC); type: biochemical; settings: FIG. 9
# T2 construct: the full-length human LPAAT-β cDNA was amplified by PCR; made in house; host or cells: Sf9 insect cells (baculovirus, pFastBac HTc); membrane fraction
# T2 sequence (O15120 24-278): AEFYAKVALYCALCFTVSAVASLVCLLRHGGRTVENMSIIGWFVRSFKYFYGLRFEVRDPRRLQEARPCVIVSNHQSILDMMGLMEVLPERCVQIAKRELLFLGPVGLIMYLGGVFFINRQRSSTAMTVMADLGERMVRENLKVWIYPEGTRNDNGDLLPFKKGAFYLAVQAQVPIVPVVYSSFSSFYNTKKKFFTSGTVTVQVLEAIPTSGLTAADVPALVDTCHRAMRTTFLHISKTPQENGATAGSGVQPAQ
# Procedure: The radiometric assay was carried out in Sf9 cell membrane overexpressing LPAAT-β resuspended in HEPES-saline buffer, pH 7.5, 1 mg/ml BSA, 1 mM EDTA and 200 μM [^14C]18:1-CoA and 200 μM sn-1-18:1 lysoPA. The samples were incubated 7 min at 37° C. extracted into organic solvent (CHCl3/CH3OH/HCl at 33/66/1), before loading onto TLC plates. A more detailed protocol for the radiometric assay is described below:
# Specifically, this LPAAT assay is a modification of the acyltransferase assay published previously (Hollenback and Glomset, Biochemistry 37: 363-376 (1999)).
# 1. The basic assay, in a total vol of 50 μl, employs a solution of substrates and the protein sample. Total assay volume, as well as the volume of each solution, can be changed to fit an experiment. In addition, other compounds, ex inhibitors and activators, can be included in the assay as well.
# 2. […]
# 7. […] To be able to convert pixel volume (determined by the Storm phosphor imager, see step 8b) into cpm, cpm standard curve must be generated on the plate. ^14C-labeled oleate dilutions in chloroform are made for this purpose. Four stocks (50 cpm/μl to 800 cpm/μl) are made and 2 μl of a different concentration are spotted in each corner of the plate (where previously there was no radioactivity). • d. […]
# The PA and lysoPA bands are easily detected in this system because of the carrier added in step 5. […]
# 8. Quantitating activity: • a. […]
# [5] = tested on: Lewis Lung tumor cells; test: Growth of Lewis Lung tumor cells in syngeneic mice; type: in vivo; settings: FIG. 6D
# [6] = tested on: NIH/3T3 cells overexpressing the oncogene Ki-ras; test: Tumor growth of NIH/3T3 cells overexpressing Ki-ras injected subcutaneously into nude mice; type: in vivo; settings: 10 mg/Kg to 100 mg/Kg intra-peritoneally on day 1, 2, 3 and 4; tumors measured on day 8; FIG. 6B
# Procedure: To determine whether administration of LPAAT-β inhibitor would have any effect on tumor growth in mice, 5×10^5 NIH/3T3 cells overexpressing the oncogene Ki-ras were injected subcutaneously into nude mice. An LPAAT-β inhibitor 6-chloro-N,N′-diphenyl-[1,3,5]triazine-2,4-diamine, at concentrations that range from 10 mg/Kg to 100 mg/Kg of mouse body weight was injected intra-peritoneally on day 1, 2, 3 and 4 after injection of tumor cells. The size of tumors was then measured on day 8.
# [7] = tested on: human DU145 prostate tumor cells; test: Human DU145 prostate tumor xenograft in nude mice; type: in vivo; settings: xenograft study, FIG. 6E
# [8] = Tolerability in nude and immunocompetent mice; type: in vivo
# Source text: In summary, endogenous LPAAT-β expression is detected at high levels by both in situ hybridization and immunohistochemistry in particular tumor tissues and often in surrounding stroma and is associated with tumor progression. LPAAT-β overexpression appears to contribute reversibly to transformation and tumorigenesis of immortalized rodent cells and may also contribute to increased transformation of weakly tumorigenic human cell lines. Compounds selected from screening of LPAAT-β inhibitors from different structural families can inhibit proliferation of numerous tumor cell lines in vitro. […] This compound can inhibit the growth of numerous tumor models in mice and may be a tumor-static compound.
structure (smiles),measurement,setting,value
"Clc1nc(Nc2ccccc2)nc(Nc2ccccc2)n1 [6-chloro-N,N′-diphenyl-[1,3,5]triazine-2,4-diamine]",growth of B16 melanoma cells,[1],decrease the growth
same,concentration effective in blocking the proliferation of MCF-7 cells,[2],> 20 µM
same,effect on LPAAT-α activity,[3],minimal effect
same,inhibition of LPAAT-β activity,[4],concentration-dependent inhibition
same,growth of Lewis Lung tumor cells,[5],decrease the growth
same,volume of the tumors in mice,[6],decreased as the concentration of the LPAAT-β inhibitor increases
same,growth of human DU145 prostate tumor cells,[7],decrease the growth
same,gross pathology,[8]; at least 100 mg/kg/day for 4-5 days,no discernable gross pathology
same,tolerated dose,"[8]; nude and immunocompetent mice, mouse, in vivo",at least 100 mg/kg/day
